Test results: patent US20250304551A1 (SHANGHAI APEIRON THERAPEUTICS COMPANY LIMITED, priority 2022, published 2025)

Assays:
[1] = target: T1, Human KIF18A (amino acid sequence 1-417) (Homo sapiens, UniProt Q8NI77); assay: Enzyme activity detection experiment (ADP-Glo, KIF18A with tubulin and ATP); type: biochemical; settings: tubulin 60 μg/mL, ATP 25 μM, KIF18A protein 2.5 nM, 120 minutes at ambient temperature, ADP-Glo chemiluminescence
T1 construct: purchased Viva Biotech (Shanghai) Ltd
In short: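 KIF18A (2.5 nM) was incubated with tubulin (60 μg/mL as added), ATP (25 μM) and serially diluted compound for 120 min at ambient temperature. ADP formed was detected by ADP-Glo: reagent for 30 min, then detection reagent for 30 min in the dark, with chemiluminescence read-out.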

OVCAR3 cells = assay: Cell proliferation activity test, OVCAR3 (CyQUANT Direct); type: cell-based; settings: Homo sapiens, OVCAR-3, 72 h, 3 days incubation, CyQUANT fluorescence detection, read-out: OVCAR-3 Cell Viability_IC50_nM
In short: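 OVCAR3 cells seeded overnight, then exposed to compounds at 0-10 μM final (0.20% DMSO) for 3 days at 37° C. Cell number read by CyQUANT Direct fluorescence after 60 min at 37° C.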

HT29 cells = assay: CyQuant cell proliferation activity test, HT29; type: cell-based; settings: Homo sapiens, HT-29, 72 h, HT29 2000 cells per well, 3 days incubation, initial concentration 3000 nM, IC50 by XLFIT, read-out: HT-29 Cell Viability_IC50_nM
In short: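 HT29 cells (2000/well, RPMI-1640 with 10% FBS) were plated overnight, then exposed to compound for 3 days at 37 °C, 5% CO2. Dosing was 9 concentrations, 3-fold dilutions from 3000 nM, in 0.20% DMSO. Proliferation was read with CyQuant reagent after 1 h, and IC50 derived from the curves.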

T1 sequence (Q8NI77 1-417): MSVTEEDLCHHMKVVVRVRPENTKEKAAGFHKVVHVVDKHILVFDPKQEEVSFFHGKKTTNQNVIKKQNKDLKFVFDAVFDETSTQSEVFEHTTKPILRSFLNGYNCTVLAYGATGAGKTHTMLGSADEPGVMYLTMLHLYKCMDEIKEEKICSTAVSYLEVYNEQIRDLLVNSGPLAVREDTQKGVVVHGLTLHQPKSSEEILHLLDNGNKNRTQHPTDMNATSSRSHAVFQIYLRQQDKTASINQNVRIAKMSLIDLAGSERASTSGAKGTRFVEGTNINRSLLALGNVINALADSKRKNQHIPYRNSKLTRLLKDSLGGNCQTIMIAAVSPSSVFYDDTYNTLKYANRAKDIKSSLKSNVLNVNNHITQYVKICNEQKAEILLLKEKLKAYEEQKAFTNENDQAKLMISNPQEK
T1 sequence (Q2XVP4 whole entry partner): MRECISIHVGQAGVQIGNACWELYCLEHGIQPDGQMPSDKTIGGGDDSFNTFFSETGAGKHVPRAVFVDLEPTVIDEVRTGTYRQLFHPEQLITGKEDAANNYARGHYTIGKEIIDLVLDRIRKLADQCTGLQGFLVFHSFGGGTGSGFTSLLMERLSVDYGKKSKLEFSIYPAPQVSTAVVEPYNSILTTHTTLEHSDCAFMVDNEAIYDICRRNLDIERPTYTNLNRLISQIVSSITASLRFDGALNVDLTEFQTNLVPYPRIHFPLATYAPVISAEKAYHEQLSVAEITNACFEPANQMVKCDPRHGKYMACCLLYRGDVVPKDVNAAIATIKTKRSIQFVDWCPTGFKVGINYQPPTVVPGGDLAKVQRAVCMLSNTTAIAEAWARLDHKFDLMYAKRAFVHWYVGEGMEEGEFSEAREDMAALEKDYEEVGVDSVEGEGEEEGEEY
T1 sequence (P02554 whole entry partner): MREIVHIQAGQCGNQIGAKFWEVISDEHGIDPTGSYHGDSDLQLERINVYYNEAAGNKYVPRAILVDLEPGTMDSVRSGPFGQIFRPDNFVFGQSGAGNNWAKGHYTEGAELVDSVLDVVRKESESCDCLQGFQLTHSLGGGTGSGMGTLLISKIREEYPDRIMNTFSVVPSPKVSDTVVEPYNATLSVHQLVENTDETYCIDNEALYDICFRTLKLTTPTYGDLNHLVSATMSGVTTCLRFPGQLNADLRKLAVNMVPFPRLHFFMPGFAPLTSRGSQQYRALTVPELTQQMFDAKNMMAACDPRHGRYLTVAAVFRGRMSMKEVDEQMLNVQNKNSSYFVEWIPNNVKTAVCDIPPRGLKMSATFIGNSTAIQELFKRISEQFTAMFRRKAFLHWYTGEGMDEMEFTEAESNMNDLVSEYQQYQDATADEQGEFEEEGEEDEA

IC50 [1] [nM] | IC50 (OVCAR3 cells) [nM] | IC50 (HT29 cells) [nM] | SMILES
272 | 59 | 60 | COc1cc(-c2cn(-c3ccc(NS(=O)(=O)CCO)cc3N3CCC4(CC3)CC4)nn2)cc(N2CCC(F)(F)CC2)n1 [Example 62, N-(4-(4-(2-(4,4-difluoropiperidin-1-yl)-6-methoxypyridin-4-yl)-1H-1,2,3-triazol-1-yl)-3-(6-azaspiro[2.5]octan-6-yl)phenyl)-2-hydroxyethane-1-sulfonamide]
437 | 108 | 153 | COc1cc(-c2cn(-c3ccc(NS(=O)(=O)CCO)cc3N3CCC4(CC3)CC4)nn2)c(F)c(N2CCC(F)(F)CC2)n1 [Example 63, N-(4-(4-(2-(4,4-difluoropiperidin-1-yl)-3-fluoro-6-methoxypyridin-4-yl)-1H-1,2,3-triazol-1-yl)-3-(6-azaspiro[2.5]octan-6-yl)phenyl)-2-hydroxyethane-1-sulfonamide]
177 | 27 | 27 | Cc1cc(-c2cn(-c3ccc(NS(=O)(=O)CCO)cc3N3CCC4(CC3)CC4)nn2)cc(N2CCC(F)(F)CC2)n1 [Example 64, N-(4-(4-(2-(4,4-difluoropiperidin-1-yl)-6-methylpyridin-4-yl)-1H-1,2,3-triazol-1-yl)-3-(6-azaspiro[2.5]octan-6-yl)phenyl)-2-hydroxyethane-1-sulfonamide]
383 | 116 | 127 | Cc1cc(-c2cn(-c3ccc(NS(=O)(=O)CCO)cc3N3CCC4(CC3)CC4)nn2)c(F)c(N2CCC(F)(F)CC2)n1 [Example 65, N-(4-(4-(2-(4,4-difluoropiperidin-1-yl)-3-fluoro-6-methylpyridin-4-yl)-1H-1,2,3-triazol-1-yl)-3-(6-azaspiro[2.5]octan-6-yl)phenyl)-2-hydroxyethane-1-sulfonamide]
62 | 52.7 | 54 | Cc1cc(-c2cn(-c3ccc(NS(=O)(=O)CCO)nc3N3CCC4(CC3)CC4)nn2)nc(N2CCC(F)(F)CC2)n1 [Example 66, N-(6-{6-azaspiro[2.5]octan-6-yl}-5-{4-[2-(4,4-difluoropiperidin-1-yl)-6-methylpyrimidin-4-yl]-1H-1,2,3-triazol-1-yl}pyridin-2-yl)-2-hydroxyethane-1-sulfonamide]
12 | 25 | 19 | Cc1cc(-c2cn(-c3cnc(NS(=O)(=O)CCO)cc3N3CCC4(CC3)CC4)nn2)nc(N2CCC(F)(F)CC2)n1 [Example 67, N-(4-{6-azaspiro[2.5]octan-6-yl}-5-{4-[2-(4,4-difluoropiperidin-1-yl)-6-methylpyrimidin-4-yl]-1H-1,2,3-triazol-1-yl}pyridin-2-yl)-2-hydroxyethane-1-sulfonamide]
112 | 159 | 250 | Cc1cc(-c2cn(-c3cnc(NS(=O)(=O)CCO)cc3N3CCC4(CC3)CC4)nn2)cc(N2CCC(F)(F)CC2)n1 [Example 68, N-(4-{6-azaspiro[2.5]octan-6-yl}-5-{4-[2-(4,4-difluoropiperidin-1-yl)-6-methylpyridin-4-yl]-1H-1,2,3-triazol-1-yl}pyridin-2-yl)-2-hydroxyethane-1-sulfonamide]
> 3000 | 1500 | > 3000 | Cc1cc(-c2nnn(-c3ccc(NS(=O)(=O)CCO)cc3N3CCC4(CC3)CC4)c2C)nc(N2CCC(F)(F)CC2)n1 [Example 69, N-(3-{6-azaspiro[2.5]octan-6-yl}-4-{4-[2-(4,4-difluoropiperidin-1-yl)-6-methylpyrimidin-4-yl]-5-methyl-1H-1,2,3-triazol-1-yl}phenyl)-2-hydroxyethane-1-sulfonamide]
1230 | 582 | 700 | CC(C)(O)c1ccc(-c2cn(-c3ccc(NS(=O)(=O)CCO)cc3N3CCC4(CC3)CC4)nn2)nc1N1CCC(F)(F)CC1 [Example 70, N-(4-(4-(6-(4,4-difluoropiperidin-1-yl)-5-(2-hydroxypropan-2-yl)pyridin-2-yl)-1H-1,2,3-triazol-1-yl)-3-(6-azaspiro[2.5]octan-6-yl)phenyl)-2-hydroxyethanesulfonamide]
165 | 94 | 131 | CC(C)(O)c1cc(-c2cn(-c3ccc(NS(=O)(=O)CCO)cc3N3CCC4(CC3)CC4)nn2)nc(N2CCC(F)(F)CC2)n1 [Example 71, N-(4-(4-(2-(4,4-difluoropiperidin-1-yl)-6-(2-hydroxypropan-2-yl)pyrimidin-4-yl)-1H-1,2,3-triazol-1-yl)-3-(6-azaspiro[2.5]octan-6-yl)phenyl)-2-hydroxyethanesulfonamide]
190 | 20 | 25 | O=S(=O)(CCO)Nc1ccc(-n2cc(-c3cc(N4CCC(F)(F)CC4)c4ncccc4c3)nn2)c(N2CCC3(CC2)CC3)c1 [Example 72, N-(4-(4-(8-(4,4-difluoropiperidin-1-yl)quinolin-6-yl)-1H-1,2,3-triazol-1-yl)-3-(6-azaspiro[2.5]octan-6-yl)phenyl)-2-hydroxyethane-1-sulfonamide]
271 | 34 | 63 | O=S(=O)(CCO)Nc1ccc(-n2cc(-c3cc4cccnc4c(N4CCC(F)(F)CC4)c3F)nn2)c(N2CCC3(CC2)CC3)c1 [Example 73, N-(3-{6-azaspiro[2.5]octan-6-yl}-4-{4-[8-(4,4-difluoropiperidin-1-yl)-7-fluoroquinolin-6-yl]-1H-1,2,3-triazol-1-yl}phenyl)-2-hydroxyethane-1-sulfonamide]
807 | 119 | 127 | Cc1ccc2cc(-c3cn(-c4ccc(NS(=O)(=O)CCO)cc4N4CCC5(CC4)CC5)nn3)cc(N3CCC(F)(F)CC3)c2n1 [Example 74, N-(3-{6-azaspiro[2.5]octan-6-yl}-4-{4-[8-(4,4-difluoropiperidin-1-yl)-2-methylquinolin-6-yl]-1H-1,2,3-triazol-1-yl}phenyl)-2-hydroxyethane-1-sulfonamide]
75 | 12 | 16 | O=S(=O)(CCO)Nc1ccc(-n2cc(-c3cc(N4CCC(F)(F)CC4)c4nnccc4c3)nn2)c(N2CCC3(CC2)CC3)c1 [Example 76, N-(4-(4-(8-(4,4-difluoropiperidin-1-yl)cinnolin-6-yl)-1H-1,2,3-triazol-1-yl)-3-(6-azaspiro[2.5]octan-6-yl)phenyl)-2-hydroxyethane-1-sulfonamide]
64 | 13 | 12 | Nc1cc2cc(-c3cn(-c4ccc(NS(=O)(=O)CCO)cc4N4CCC5(CC4)CC5)nn3)cc(N3CCC(F)(F)CC3)c2nn1 [Example 77, N-(4-(4-(3-amino-8-(4,4-difluoropiperidin-1-yl)cinnolin-6-yl)-1H-1,2,3-triazol-1-yl)-3-(6-azaspiro[2.5]octan-6-yl)phenyl)-2-hydroxyethane-1-sulfonamide]
> 3000 | > 3000 | > 3000 | Cc1cc(-c2cn(-c3ccc(NS(=O)(=O)CCO)cc3N3CCC4(CC3)CC4)nn2)cc(N2CCC(F)(F)CC2)c1[N+](=O)[O-] [Example 78, N-(3-{6-azaspiro[2.5]octan-6-yl}-4-{4-[3-(4,4-difluoropiperidin-1-yl)-5-methyl-4-nitrophenyl]-1H-1,2,3-triazol-1-yl}phenyl)-2-hydroxyethane-1-sulfonamide]
24 | 11 | 7 | Nc1ncc(-c2cn(-c3ccc(NS(=O)(=O)CCO)cc3N3CCC4(CC3)CC4)nn2)nc1N1CCC(F)(F)CC1 [Example 79, N-(4-{4-[5-amino-6-(4,4-difluoropiperidin-1-yl)pyrazin-2-yl]-1H-1,2,3-triazol-1-yl}-3-{6-azaspiro[2.5]octan-6-yl}phenyl)-2-hydroxyethane-1-sulfonamide]
475 | 21 | 26 | Nc1ccc2cc(-c3cn(-c4ccc(NS(=O)(=O)CCO)cc4N4CCC5(CC4)CC5)nn3)c(F)c(N3CCC(F)(F)CC3)c2n1 [Example 80, N-(4-{4-[2-amino-8-(4,4-difluoropiperidin-1-yl)-7-fluoroquinolin-6-yl]-1H-1,2,3-triazol-1-yl}-3-{6-azaspiro[2.5]octan-6-yl}phenyl)-2-hydroxyethane-1-sulfonamide]
710 | 20 | 30 | Nc1nc2c(N3CCC(F)(F)CC3)c(F)c(-c3cn(-c4ccc(NS(=O)(=O)CCO)cc4N4CCC5(CC4)CC5)nn3)cc2s1 [Example 81, N-(4-{4-[2-amino-4-(4,4-difluoropiperidin-1-yl)-5-fluoro-1,3-benzothiazol-6-yl]-1H-1,2,3-triazol-1-yl}-3-{6-azaspiro[2.5]octan-6-yl}phenyl)-2-hydroxyethane-1-sulfonamide]
283 | 15 | 23 | O=S(=O)(CCO)Nc1ccc(-n2cc(-c3ccc(-c4cccnc4)c(N4CCC(F)(F)CC4)n3)nn2)c(N2CCC3(CC2)CC3)c1 [Example 82, N-(3-{6-azaspiro[2.5]octan-6-yl}-4-{4-[2-(4,4-difluoropiperidin-1-yl)-[3,3′-bipyridyl]-6-yl]-1H-1,2,3-triazol-1-yl}phenyl)-2-hydroxyethane-1-sulfonamide]
